Laboratory results: patent publication US20140356452A1, “Therapeutic Uses of Tetrachlorodecaoxygen (TCDO)” (IBT USA INC., priority 2012, published 2014)

Columns and labels:
wounds [1] = details: topical; superior to PVP-iodine treatment; cited from earlier work
[2] = tested on: radiation-induced, chemical induced and metastatic malignant and benign tumors; details: cited from earlier work
[3] = tested on: T-lymphoma cell line ACH2; details: cited from earlier work
hematopoietic stem cells = details: mice receiving sublethal doses of irradiation; cited from earlier work
[4] = tested on: humoral and cellular immune responses; details: cited from earlier work
[5] = tested on: lipopolysaccharide (LPS) from E coli 055B5; details: TCDO 0.2 ml/kg iv twice during the day before iv LPS; without TCDO 346; cited from earlier work
[6] = tested on: monocytes and large granular lymphocytes; details: rats, cited from earlier work
activated microglia = details: Kindy et al.; cited from earlier work
diabetic foot ulcer = test: Example 6: randomized controlled trial of TCDO as adjunct in diabetic foot ulcer; assay type: in vivo, human
Procedure: This randomized controlled trial was undertaken to evaluate the effect of TCDO as an adjunct to the standard treatment of diabetic foot ulcer. A total of 40 participants were randomized into 2 groups of 20. One group underwent standard therapy combined with infusions of TCDO, and 1 underwent standard therapy combined with placebo. The wound severity scores, which vary with the severity of infection and inflammation, necrotic and granulation tissues, and wound depth and area, were assessed weekly for 9 weeks.

[7] = tested on: granulocytes, PBMCs, LGLs, erythropoiesis; details: rats, cited from earlier work
[8] = tested on: spinal cord injury (SCI) rat model; test: Example 3: TCDO in the spinal cord injury rat model (lesion volume, BBB); assay type: in vivo
Procedure: Tetrachlorodecaoxygen (TCDO) was tested for efficacy in the spinal cord injury (SCI) rat model. In order to determine the efficacy of TCDO, rats were subjected to spinal cord injury and 6 weeks of recovery. Rats were injected intravenously with saline or TCDO solutions. Rats received 1 injection regiment: administered 15 minutes after injury. Animals were injected once daily for 5 days following the injury. Treated rats were examined after 1, 2, 3, 4, 5, and 6 weeks for drug behavioral effect. The animals were examined for changes in lesion volume (LV) and Basso, Beattie and Bresnahan (BBB) locomotor test. […] However, by 7 days, TCDO was not effective in reducing the LV or behavioral deficits.

HIV = details: cited from earlier work
[9] = tested on: monocytes, macrophages and lymphocytes; details: in vitro; cited from earlier work
[10] = tested on: autoimmune disease with skin manifestations; details: cited from earlier work
non-healing wounds = test: Example 4: topical TCDO versus saline in 271 patients with non-healing wounds; assay type: in vivo, human
Procedure: TCDO was investigated for its effects on non-healing wounds. In the study, 271 patients with non-healing wounds which included post-operative wounds, venous ulcers, arterial ulcers, post traumatic wounds and decubitus ulcers. The patients received either 5 mL of TCDO or saline twice daily applied by compress or directly to the wound for 21 days. […] Irrespective of wound types, wound surface decreased 2 to 4 times more quickly with TCDO treatment compared to saline. […] Adverse events were reported by 7% and 12% of patients treated with saline and TCDO respectively, the most frequent was slight pain.

[11] = tested on: macrophages infiltrating a skin blister; details: human wound-healing model; cited from earlier work
[12] = tested on: spinal cord injury (SCI) rat model; test: Spinal cord injury rat model: lesion volume; assay type: in vivo; details: for Percent change in Lesion volume: reduction vs Saline group (group 1), 0.5 ml/kg IV
Procedure: Animals: Female Sprague-Dawley rats (Harlan Sprague-Dawley, Indianapolis, Ind.), weighing 200-225 grams each were given free access to food and water before the experiment. The animals were anesthetized with ketamine (80 mg/kg) and xylazine (10 mg/kg). Brain temperatures were monitored using a rectal thermometer. The animals' body temperature was maintained at 37° C. by using a water jacketed heating pad. Brain temperature was monitored for 1 hour prior to injury to 6 hours following injury and was recorded at 30-minute intervals.
Experimental Groups. The spinal cord injury model utilized in the studies is described in detail (Rabchevsky et al, 2002; J. Neurosci. Res. 68:7). Young adult female Sprague-Dawley rats received a spinal cord contusion using the Precision Scientific Inc. pneumatic impactor. Female animals were used due to the paralysis associated with the injury and ease of voiding the bladder. Prior to surgery, rats were assigned to different treatment groups based on a randomized block design so that on any given surgery day all treatment groups were included. The rats were anesthetized with ketamine (80 mg/kg) and xylazine (10 mg/kg) before laminectomy was performed at the 10th thoracic vertebra (T10). The vertebral column was stabilized with angled clamps on the upper thoracic (T8) and lumber […] levels and the impactor with a tip diameter of 2 mm was delivered at approximately 50 kdynes onto the exposed, intact dura overlying the dorsal spinal cord. The impactor was immediately removed, the wound irrigated with saline and the muscle and skin openings sutured together.
Drug Administration. Compound was administered in the following paradigm: intravenous injection of saline or drug solutions 15 minutes following injury at 0.5 ml/kg (1×10^4, 5×10^4, and 10×10^4 TCDO). Drug was administered once per day starting at the indicated times and continued for 5 days. The saline control group was run in parallel with the drug-treated groups.
Histology. At the end of the study, the animals were killed and the spinal cord fixed in 4% paraformaldehyde. For analysis, 20 μm cryosections were stained for eriochrome cyanine (EC) to differentiate between white matter and cell bodies to calculate the amount of spared tissue through the lesion site. Immunocytochemical analysis was performed on the tissue. Tissue sparing was determined by computed image analysis from 10 evenly spaced sections through the injured T10 segment. The volume of necrotic tissue divided by the total cross-sectional volume is converted to a percentage and subtracted from 100%. Sections were taken for immunocytochemical analysis for macrophage infiltration
Each animal received induction of 5 i.v. injections for a total of 5×0.5 ml/kg of body weight. […]

wounds [13] = details: applied topically; cited from earlier work
E. coli = details: phagocytosis assay; cited from earlier work
[14] = 4 cycles of 0.5 mL TCDO/kg body weight per day
Procedure: Patients were then given 4 cycles of WF10 with the daily dose ranging from 0.5 mL/kg body weight to 1.5 mL/kg body weight.
SCI rat study: mortality = assay type: in vivo; details: 0.5 ml/kg IV once daily 5 days, 6 weeks
Description: Mortality: There were no deaths in this study.

[15] = target: gp120 envelope glycoprotein of HIV-1 (Human immunodeficiency virus type 1 group M subtype B, UniProt P04578); details: pre-incubation with TCDO; cited from earlier work
[16] = after 9 weeks, subgroup analysis, p<0.01 vs placebo
[17] = i.v. once daily 5 days, initiated 15 minutes following injury
[18] = one patient, four cycles at 0.5 mL/kg body weight
[19] = patients, two cycles at 0.5 mL/kg body weight

**Q.** What does the source list for Tetrachlorodecaoxygen [TCDO]?
**A.** Reduction in wound surface (wounds [1]): 74.9%; Antitumor effects [2]: displayed direct antitumor effects; Induction of chromosomally integrated HIV-1 provirus [3]: failed to induce; Regeneration of hematopoietic stem cells (hematopoietic stem cells): stimulated regeneration of hematopoietic stem cells; Humoral immune response ([4]; Jerne plaque test): increased; Cellular immune response ([4]; footpad swelling test): increased; Proportions of T-helper and T suppressor/cytotoxic cells ([4]; spleen and thymus): altered proportions of T-helper and T suppressor/cytotoxic cells; LD50 value of LPS after TCDO [5]: 518 mg; Time for monocyte level to return to normal value after discontinuation ([6]; after 90 days of dosing): 30 days; Blood levels of monocytes and large granular lymphocytes ([6]; daily for 90 days, 0.33 to 2.0 mL/kg body weight, within four days): greater than three times baseline value; Monocyte level elevated over baseline ([6]; sixteen days after discontinuation): approximately 50%; Production of proinflammatory cytokines and superoxide anion (activated microglia): suppresses the production of proinflammatory cytokines and superoxide anion; Wound depth and wound area versus placebo (diabetic foot ulcer; after 9 weeks): not statistically significant; Wound severity score (diabetic foot ulcer; after 9 weeks, standard therapy plus TCDO infusions, n=20, p<0.05 vs placebo): 1.8±1.9; Infection and inflammation score (diabetic foot ulcer; [16]): 0.0±0.0; Necrotic tissue score (diabetic foot ulcer; [16]): 0.0±0.0; Granulation tissue score (diabetic foot ulcer; after 9 weeks, subgroup analysis, p<0.05 vs placebo): 0.1±0.3; Severe adverse events (diabetic foot ulcer; throughout the observation period): No severe adverse events were observed; Erythropoiesis ([7]; after total body X-irradiation): stimulated erythropoiesis; Proportion of granulocytes, PBMCs and LGLs [7]: increased the proportion of granulocytes, peripheral blood monocytes (PBMCs) and large granular lymphocytes (LGLs); Reduction of LV or behavioral deficits ([8]; by 7 days): not effective; Decrease in lesion volume (LV) [8, 17]: 49%; Improvement of BBB score [8, 17]: 158%; Infectivity of HIV particles (HIV; HIV stocks supplemented with TCDO, concentration dependent): markedly decreased the infectivity of HIV particles; Anti-HIV properties (HIV; in vitro): displayed anti-HIV properties; Replication of HIV (HIV; persistently infected lymphocytic and monocytic cell lines, peripheral blood mononuclear cells): did not affect the replication of HIV; Delayed virus spread of HIV in presence of suboptimal concentrations of zidovudine (HIV; simultaneous addition of TCDO): could significantly be blocked; Antigen presentation [9]: decrease antigen presentation; Macrophage TNF-α expression [9]: decrease macrophage tumor necrosis factor (TNF)-α expression; Macrophage-fibroblast cooperation [9]: enhance macrophage-fibroblast cooperation; Oxidative burst in monocytes [9]: stimulate an oxidative burst in monocytes; Phagocytosis [9]: increase phagocytosis; Treatment outcome, HIV associated psoriasis [10, 18]: successfully treated; Treatment outcome, eczema [10, 18]: successfully treated; Treatment outcome, pustular psoriasis ([10]; one patient, two cycles at 0.5 mL/kg body weight): successfully treated; Treatment outcome, chronic actinic dermatitis [10, 19]: successfully treated; Treatment outcome, pemphigus vulgaris [10, 19]: successfully treated; Wound cleaning and formation of new tissue versus saline (non-healing wounds; 271 patients, 5 mL twice daily topically for 21 days): significantly superior to saline; Adverse events, patients reporting (non-healing wounds; topical, 21 days, most frequent was slight pain): 12%; Number of macrophages infiltrating a skin blister [11]: increased the number of macrophages infiltrating a skin blister; Lesion volume (mm^3) ([12]; rat SCI, 1 × 10^4 units TCDO, 0.5 ml/kg IV once daily 5 days from 15 min after injury, day 42, mean ± SD): did not show a significant reduction; Percent change in Lesion volume ([12]; 1 × 10^4 units TCDO): 25%; Percent change in Lesion volume ([12]; 5 × 10^4 units TCDO): 50%; Percent change in Lesion volume ([12]; 10 × 10^4 units TCDO): 65%; Effects of cortisone on wounds (wounds [13]): reverse the effects of cortisone on wounds; TCDO dose to which the concentration of maximal ingestion of E. coli corresponds (E. coli): 0.5 mL/kg-body weight; Hemolysis [14]: no clinically relevant hemolysis; Mortality (SCI rat study: mortality): no deaths; Binding of gp120 of HIV-1 to cells [15]: is blocked
